Source: ChEMBL document CHEMBL3751745, “Aryl-imidazothiadiazole analogues as microtubule disrupting agents” (Medchemcomm, 2015)
pIC50: −log10 of the molar value. Activity calls are given as the source filed them. The rule behind the calls is not given here.

What was measured:
[1] = molecular target: Tubulin (Sus scrofa) (UniProt P02554+P02550); assay: Inhibition of porcine brain tubulin polymerization at 5 uM by fluorescence based assay
[2] = Cytotoxicity against human MIAPaCa2 cells assessed as cell viability after 48 hrs by SRB assay; format: functional, cell-based; details: MIA PaCa-2, 48 h
[3] = tested on: HeLa; assay: Cytotoxicity against human HeLa cells assessed as cell viability after 48 hrs by SRB assay; format: functional, cell-based
[4] = tested on: MCF7; assay: Cytotoxicity against human MCF7 cells assessed as cell viability after 48 hrs by SRB assay; format: functional, cell-based; details: MCF7, 48 h
[5] = Cytotoxicity against human DU145 cells assessed as cell viability after 48 hrs by SRB assay; format: functional, cell-based; details: DU-145, 48 h
[6] = tested on: HeLa; assay: Induction of apoptosis in human HeLa cells assessed as activation of caspase-3 activity at 2 uM after 24 hrs by ELISA; format: functional
[7] = tested on: HeLa; assay: Disruption of microtubule organization in human HeLa cells at 5 uM after 24 hrs by DAPI-FITC staining based confocal microscopic analysis; format: functional, cell-based
[8] = tested on: HeLa; assay: Induction of cell cycle arrest in human HeLa cells assessed as cell arrest at accumulation at G2/M phase at 2 uM after 24 hrs by flow cytometric analysis (reference value: 25.49%); format: functional
[9] = molecular target: Tubulin (Homo sapiens) (UniProt P68371+Q9H4B7+P0DPH7+P68366+Q13509+Q71U36+P04350+Q3ZCM7+P07437+P68363+Q9BQE3+Q6PEY2+Q13885+Q9BVA1+Q9BUF5); assay: Inhibition of colchicine binding to tubulin (unknown origin) assessed as decrease in tubulin-colchicine complex at 0 to 15 uM incubated for 1 hr by fluorescence based colchicine competitive binding assay; format: protein-complex assay
[10] = tested on: HeLa; assay: Induction of apoptosis in human HeLa cells assessed as activation of caspase-3 activity at 4 uM after 24 hrs by ELISA; format: functional
[11] = tested on: HeLa; assay: Induction of cell cycle arrest in human HeLa cells assessed as cell arrest at accumulation at G2/M phase at 5 uM after 24 hrs by flow cytometric analysis (reference value: 25.49%); format: functional
[12] = molecular target: Tubulin (Sus scrofa, UniProt P02554+P02550); assay: Inhibition of porcine brain tubulin polymerization by fluorescence based assay
[13] = tested on: HeLa; assay: Induction of apoptosis in human HeLa cells assessed as induction of cyclin B1 levels at 5 uM after 24 hrs by Western blot analysis; format: functional, cell-based
[14] = tested on: HeLa; assay: Induction of apoptosis in human HeLa cells assessed as activation of cyclin B1 mRNA levels at 5 uM after 24 hrs by semi-quantitative RT-PCR; format: functional, cell-based

Chain of Tubulin (Sus scrofa) (P02550 whole entry, looked up): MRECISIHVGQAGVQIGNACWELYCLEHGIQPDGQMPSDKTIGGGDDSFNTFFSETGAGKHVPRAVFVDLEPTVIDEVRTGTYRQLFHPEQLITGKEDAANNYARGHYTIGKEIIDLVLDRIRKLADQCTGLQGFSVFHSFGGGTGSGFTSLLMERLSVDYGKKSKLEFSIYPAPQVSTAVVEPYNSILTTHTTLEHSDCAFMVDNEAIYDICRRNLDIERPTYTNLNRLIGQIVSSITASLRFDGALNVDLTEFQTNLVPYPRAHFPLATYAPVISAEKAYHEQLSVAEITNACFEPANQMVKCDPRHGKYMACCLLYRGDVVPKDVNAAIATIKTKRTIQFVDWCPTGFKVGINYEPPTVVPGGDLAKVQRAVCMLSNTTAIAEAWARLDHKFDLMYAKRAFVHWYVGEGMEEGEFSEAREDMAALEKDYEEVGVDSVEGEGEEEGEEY
Chain of Tubulin (Sus scrofa) (P02554 whole entry, looked up): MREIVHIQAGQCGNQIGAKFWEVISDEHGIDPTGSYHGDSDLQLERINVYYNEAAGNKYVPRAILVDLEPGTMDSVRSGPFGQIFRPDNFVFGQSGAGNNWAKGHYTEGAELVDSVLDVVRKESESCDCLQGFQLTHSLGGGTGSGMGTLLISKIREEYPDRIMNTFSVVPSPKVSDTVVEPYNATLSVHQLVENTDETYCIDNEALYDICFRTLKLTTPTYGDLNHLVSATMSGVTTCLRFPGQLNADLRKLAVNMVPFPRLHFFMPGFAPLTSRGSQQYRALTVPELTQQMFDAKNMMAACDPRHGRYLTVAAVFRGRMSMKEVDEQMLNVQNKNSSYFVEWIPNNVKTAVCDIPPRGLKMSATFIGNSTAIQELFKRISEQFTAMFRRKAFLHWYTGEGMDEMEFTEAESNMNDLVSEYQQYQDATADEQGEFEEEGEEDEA

COC(=O)Nc1nc2cc(C(=O)c3cccs3)ccc2[nH]1
inhibition [1]: 79.2%

CCc1nn2c(-c3ccc(OC(F)(F)F)cc3)c(-c3cc(OC)c(OC)c(OC)c3)nc2s1
pIC50 [2]: 4.79 | pIC50 [3]: 4.87 | pIC50 [4]: 4.83 | pIC50 [5]: 4.63

COc1cc(-c2nc3sc(C4CC4)nn3c2-c2ccc3c(c2)OCO3)cc(OC)c1OC
pIC50 [2]: 4.71 | pIC50 [3]: 4.77 | pIC50 [4]: 4.59 | pIC50 [5]: 4.89

COc1cc(-c2nc3sc(C4CC4)nn3c2-c2ccc(F)cc2)cc(OC)c1OC
pIC50 [2]: 4.56 | pIC50 [3]: 4.81 | pIC50 [4]: 4.71 | pIC50 [5]: 4.82

CCc1nn2c(-c3ccc(F)c(Cl)c3)c(-c3cc(OC)c(OC)c(OC)c3)nc2s1
pIC50 [2]: 4.76 | pIC50 [3]: 4.86 | pIC50 [4]: 4.84 | pIC50 [5]: 4.94

COc1cc(-c2nc3sc(C4CC4)nn3c2-c2ccc(F)c(Cl)c2)cc(OC)c1OC
pIC50 [2]: 4.68 | pIC50 [3]: 4.81 | pIC50 [4]: 4.73 | pIC50 [5]: 4.86

COc1cc(-c2nc3sc(C4CC4)nn3c2-c2ccc(Cl)cc2)cc(OC)c1OC
pIC50 [2]: 4.76 | pIC50 [3]: 4.72 | pIC50 [4]: 4.64 | pIC50 [5]: 4.94

CCc1ccc(-c2c(-c3cc(OC)c(OC)c(OC)c3)nc3sc(C4CC4)nn23)cc1
pIC50 [2]: 4.40 | pIC50 [3]: 4.44 | pIC50 [4]: 4.53 | pIC50 [5]: 4.87

COc1ccc(-c2c(-c3cc(OC)c(OC)c(OC)c3)nc3sc(C4CC4)nn23)cc1OC
pIC50 [2]: 4.71 | pIC50 [3]: 4.81 | pIC50 [4]: 4.89 | pIC50 [5]: 4.78

CCc1nn2c(-c3ccc(OC)cc3)c(-c3cc(OC)c(OC)c(OC)c3)nc2s1
pIC50 [2]: 4.52 | pIC50 [3]: 4.67 | pIC50 [4]: 4.60 | pIC50 [5]: 4.60

CCc1nn2c(-c3ccc4ccccc4c3)c(-c3cc(OC)c(OC)c(OC)c3)nc2s1
fold change (FC) [6]: 2.5 | pIC50 [2]: 5.92 | pIC50 [3]: 5.80 | Activity [7]: Active | Activity [8]: 64.84% | inhibition [9]: Dose-dependent effect | pIC50 [4]: 5.62 | fold change (FC) [10]: 2.5 | Activity [11]: 78.3% | inhibition [1]: 75.1% | IC50 [12]: 1.7 µM | pIC50 [5]: 5.35 | Activity [13]: Active | Activity [14]: Active

CCc1nn2c(-c3ccccc3)c(-c3cc(OC)c(OC)c(OC)c3)nc2s1
pIC50 [2]: 4.87 | pIC50 [3]: 4.97 | pIC50 [4]: 4.94 | pIC50 [5]: 4.84

COc1cc(-c2nc3sc(C4CC4)nn3c2-c2cc(OC)c(OC)c(OC)c2)cc(OC)c1OC
pIC50 [2]: 4.40 | pIC50 [3]: 4.86 | pIC50 [4]: 4.44 | pIC50 [5]: 4.28

CCc1nn2c(-c3ccc(C(F)(F)F)cc3)c(-c3cc(OC)c(OC)c(OC)c3)nc2s1
pIC50 [2]: 4.83 | pIC50 [3]: 4.98 | pIC50 [4]: 4.93 | pIC50 [5]: 4.74

COc1cc(-c2nc3sc(C4CC4)nn3c2-c2ccc(N(C)C)cc2)cc(OC)c1OC
fold change (FC) [6]: 2.5 | pIC50 [2]: 5.60 | pIC50 [3]: 5.54 | Activity [7]: Active | Activity [8]: 57.66% | pIC50 [4]: 5.47 | fold change (FC) [10]: 2.5 | Activity [11]: 72.5% | inhibition [1]: 60.9% | IC50 [12]: 3.8 µM | pIC50 [5]: 5.46 | Activity [13]: Active | Activity [14]: Active

COc1cc(-c2nc3sc(C4CC4)nn3c2-c2ccc3ccccc3c2)cc(OC)c1OC
pIC50 [2]: 4.67 | pIC50 [3]: 4.71 | pIC50 [4]: 4.82 | pIC50 [5]: 4.35

COc1cc(-c2nc3sc(C4CC4)nn3c2-c2ccccc2)cc(OC)c1OC
pIC50 [2]: 4.50 | pIC50 [3]: 4.45 | pIC50 [4]: 4.37 | pIC50 [5]: 4.59

CCc1nn2c(-c3ccc(N(C)C)cc3)c(-c3cc(OC)c(OC)c(OC)c3)nc2s1
fold change (FC) [6]: 2.5 | pIC50 [2]: 5.60 | pIC50 [3]: 5.66 | Activity [7]: Active | Activity [8]: 55.3% | pIC50 [4]: 5.72 | fold change (FC) [10]: 2.5 | Activity [11]: 67.53% | inhibition [1]: 66.8% | IC50 [12]: 3.1 µM | pIC50 [5]: 5.56 | Activity [13]: Active | Activity [14]: Active

COc1cc(-c2nc3sc(C4CC4)nn3c2-c2ccc(C(F)(F)F)cc2)cc(OC)c1OC
pIC50 [2]: 4.63 | pIC50 [3]: 4.36 | pIC50 [4]: 4.74 | pIC50 [5]: 4.82

CCc1nn2c(-c3ccc(F)cc3)c(-c3cc(OC)c(OC)c(OC)c3)nc2s1
pIC50 [2]: 4.98 | pIC50 [3]: 4.95 | pIC50 [4]: 5.01 | pIC50 [5]: 4.78

CCc1nn2c(-c3cc(F)cc(F)c3)c(-c3cc(OC)c(OC)c(OC)c3)nc2s1
pIC50 [2]: 4.51 | pIC50 [3]: 4.58 | pIC50 [4]: 4.44 | pIC50 [5]: 4.66

CCc1ccc(-c2c(-c3cc(OC)c(OC)c(OC)c3)nc3sc(CC)nn23)cc1
pIC50 [2]: 4.84 | pIC50 [3]: 4.91 | pIC50 [4]: 4.90 | pIC50 [5]: 4.61

COc1cc(-c2nc3sc(C4CC4)nn3c2-c2cc(F)cc(F)c2)cc(OC)c1OC
pIC50 [2]: 4.53 | pIC50 [3]: 4.76 | pIC50 [4]: 4.63 | pIC50 [5]: 4.77

COc1cc(F)ccc1-c1c(-c2cc(OC)c(OC)c(OC)c2)nc2sc(C3CC3)nn12
pIC50 [2]: 4.39 | pIC50 [3]: 4.59 | pIC50 [4]: 4.46 | pIC50 [5]: 4.65

COc1ccc(/C=C\c2cc(OC)c(OC)c(OC)c2)cc1O [COMBRETASTATIN A4]
fold change (FC) [6]: 2.5 | pIC50 [2]: 7.06 | pIC50 [3]: 6.82 | Activity [7]: Active | pIC50 [4]: 6.87 | fold change (FC) [10]: 2.5 | Activity [11]: 83.95% | pIC50 [5]: 6.92 | Activity [13]: Active | Activity [14]: Active

CCc1nn2c(-c3ccc(F)cc3OC)c(-c3cc(OC)c(OC)c(OC)c3)nc2s1
pIC50 [2]: 4.54 | pIC50 [3]: 4.55 | pIC50 [4]: 4.52 | pIC50 [5]: 4.45

CCc1nn2c(-c3cc(OC)c(OC)c(OC)c3)c(-c3cc(OC)c(OC)c(OC)c3)nc2s1
pIC50 [2]: 4.71 | pIC50 [3]: 4.76 | pIC50 [4]: 4.69 | pIC50 [5]: 4.87

COc1cc(-c2nc3sc(C4CC4)nn3c2-c2ccc(C)cc2)cc(OC)c1OC
pIC50 [2]: 4.53 | pIC50 [3]: 4.69 | pIC50 [4]: 4.58 | pIC50 [5]: 4.73

COc1cc(-c2nc3sc(C4CC4)nn3c2-c2ccc(OC(F)(F)F)cc2)cc(OC)c1OC
pIC50 [2]: 4.74 | pIC50 [3]: 4.95 | pIC50 [4]: 4.77 | pIC50 [5]: 4.89

CCc1nn2c(-c3ccc(C)cc3)c(-c3cc(OC)c(OC)c(OC)c3)nc2s1
pIC50 [2]: 4.69 | pIC50 [3]: 4.83 | pIC50 [4]: 4.78 | pIC50 [5]: 4.66

CCc1nn2c(-c3ccc(OC)c(OC)c3)c(-c3cc(OC)c(OC)c(OC)c3)nc2s1
pIC50 [2]: 4.84 | pIC50 [3]: 4.84 | pIC50 [4]: 4.94 | pIC50 [5]: 4.88

COc1ccc(-c2c(-c3cc(OC)c(OC)c(OC)c3)nc3sc(C4CC4)nn23)cc1
pIC50 [2]: 4.77 | pIC50 [3]: 4.84 | pIC50 [4]: 4.94 | pIC50 [5]: 4.98

CCc1nn2c(-c3ccc(Cl)cc3)c(-c3cc(OC)c(OC)c(OC)c3)nc2s1
pIC50 [2]: 4.81 | pIC50 [3]: 4.86 | pIC50 [4]: 4.91 | pIC50 [5]: 4.72

CC(=O)O[C@H]1C(=O)[C@@]2(C)[C@H]([C@H](OC(=O)c3ccccc3)[C@]3(O)C[C@H](OC(=O)[C@H](O)[C@@H](NC(=O)c4ccccc4)c4ccccc4)C(C)=C1C3(C)C)[C@]1(OC(C)=O)CO[C@@H]1C[C@@H]2O
inhibition [9]: inactive | Activity [13]: Active | Activity [14]: Active

CCc1nn2c(-c3ccc4c(c3)OCO4)c(-c3cc(OC)c(OC)c(OC)c3)nc2s1
pIC50 [2]: 4.88 | pIC50 [3]: 5.06 | pIC50 [4]: 4.94 | pIC50 [5]: 4.73
